In the NIST ThermoML archive (doi:10.1016/j.jct.2016.01.021):

What was measured:
[1] = xn = mol fraction of the nth substance listed; settings: 100 kPa, Liquid, x1 = 1; for viscosity: Capillary tube (Ostwald / Ubbelohde) method; for mass density: Vibrating tube method
[2] = 100 kPa, Liquid; for viscosity: Capillary tube (Ostwald / Ubbelohde) method; for mass density: Vibrating tube method

CCCCCCCCCCCCCCCC [hexadecane] + CCCCCCCCCC(=O)OCC
[1]
Settings | mass density [kg/m3] | viscosity [mPa·s]
298.15 K | 769.92 | 3.085
303.15 K | 766.51 | 2.756
308.15 K | 763.06 | 2.478
313.15 K | 759.6 | 2.239
318.15 K | 756.14 | 2.034
323.15 K | 752.68 | 1.857

CCCCCCCCCCCCCCCC [hexadecane] + CCCCCCCCCCCC(=O)OCC
[1]
Settings | mass density [kg/m3] | viscosity [mPa·s]
298.15 K | 769.92 | 3.085
303.15 K | 766.51 | 2.756
308.15 K | 763.06 | 2.478
313.15 K | 759.6 | 2.239
318.15 K | 756.14 | 2.034
323.15 K | 752.68 | 1.857

CCCCCCCCCC(=O)OCC [ethyl decanoate]
[2]
Settings | mass density [kg/m3] | viscosity [mPa·s]
298.15 K | 860.05 | 2.115
303.15 K | 855.99 | 1.919
308.15 K | 851.92 | 1.75
313.15 K | 847.85 | 1.603
318.15 K | 843.77 | 1.474
323.15 K | 839.69 | 1.362

CCCCCCCCCCCCCCCC [hexadecane]
[2]
Settings | mass density [kg/m3] | viscosity [mPa·s]
298.15 K | 769.92 | 3.085
303.15 K | 766.51 | 2.756
308.15 K | 763.06 | 2.478
313.15 K | 759.6 | 2.239
318.15 K | 756.14 | 2.034
323.15 K | 752.68 | 1.857

CCCCCCCC(=O)OCC [ethyl octanoate]
[2]
Settings | mass density [kg/m3] | viscosity [mPa·s]
298.15 K | 862.64 | 1.428
303.15 K | 858.34 | 1.313
308.15 K | 854.04 | 1.211
313.15 K | 849.72 | 1.121
318.15 K | 845.39 | 1.042
323.15 K | 841.06 | 0.971

CCCCCCCCCCCCCCCC [hexadecane] + CCCCCCCC(=O)OCC
[1]
Settings | mass density [kg/m3] | viscosity [mPa·s]
298.15 K | 769.92 | 3.085
303.15 K | 766.51 | 2.756
308.15 K | 763.06 | 2.478
313.15 K | 759.6 | 2.239
318.15 K | 756.14 | 2.034
323.15 K | 752.68 | 1.857

CCCCCCCCCCCC(=O)OCC [ethyl dodecanoate]
[2]
Settings | mass density [kg/m3] | viscosity [mPa·s]
298.15 K | 858.19 | 3.015
303.15 K | 854.3 | 2.704
308.15 K | 850.4 | 2.439
313.15 K | 846.5 | 2.213
318.15 K | 842.6 | 2.016
323.15 K | 838.7 | 1.846
